# Laboratory results: ChEMBL document CHEMBL1201862, “PubChem BioAssay data set” (2004)
# Calls of active or inactive are those of the source.
# How the values were obtained:
# [1] = A2780 ovarian cancer cell cytotoxicity, dose response, cytotoxicity control, plate reader, dry powder samples (AID 743046); assay type: functional, cell-based
# [2] = inhibitors of intracellular T. cruzi replication, confirmation, NIH3T3 host cells, beta-gal luminescence (AID 2044); assay type: functional, cell-based;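 also: intracellular parasites grown in NIH/3T3 mouse fibroblasts as host cells; luminescent beta-galactosidase reporter signal from transgenic T. cruzi replicating inside host cells; inhibitors lower the luminescence signal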
# [3] = cytotoxicity toward NIH3T3 fibroblasts, dose response, counter-screen, cell-based, ATP luminescence, mouse fibroblasts (AID 2010); assay type: functional;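 also: cells exposed to compound for about 90 hours before reading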
# [4] = target: T1, Methionyl-tRNA synthetase, putative (Trypanosoma brucei brucei, UniProt Q38C91); assay type: functional, Trypanosoma brucei brucei strain 927/4 GUTat10.1
# T1 sequence (Q38C91 whole entry): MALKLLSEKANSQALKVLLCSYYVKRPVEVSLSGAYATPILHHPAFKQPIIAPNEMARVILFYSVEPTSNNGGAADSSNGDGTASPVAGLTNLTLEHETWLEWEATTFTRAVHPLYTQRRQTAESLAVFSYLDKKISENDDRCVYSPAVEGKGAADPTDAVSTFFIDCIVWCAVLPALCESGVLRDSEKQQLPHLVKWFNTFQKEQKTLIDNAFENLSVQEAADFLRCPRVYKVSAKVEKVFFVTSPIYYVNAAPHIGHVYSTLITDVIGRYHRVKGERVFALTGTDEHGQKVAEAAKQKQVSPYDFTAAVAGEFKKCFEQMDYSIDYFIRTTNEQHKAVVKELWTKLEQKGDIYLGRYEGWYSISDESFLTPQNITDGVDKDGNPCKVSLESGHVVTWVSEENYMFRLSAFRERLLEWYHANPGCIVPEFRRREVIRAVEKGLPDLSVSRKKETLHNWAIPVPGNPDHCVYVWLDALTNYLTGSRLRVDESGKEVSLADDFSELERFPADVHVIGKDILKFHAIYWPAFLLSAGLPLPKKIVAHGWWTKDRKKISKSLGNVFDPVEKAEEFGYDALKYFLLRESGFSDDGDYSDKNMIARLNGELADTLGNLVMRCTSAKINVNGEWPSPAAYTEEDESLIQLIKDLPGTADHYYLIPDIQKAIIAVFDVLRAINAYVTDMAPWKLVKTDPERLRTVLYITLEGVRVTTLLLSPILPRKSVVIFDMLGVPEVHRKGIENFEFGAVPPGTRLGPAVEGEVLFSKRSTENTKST
# [5] = Counterscreen for inhibitors of Trypanosoma brucei methionyl tRNA synthetase (MetRS): Luminescence-based cell-based high throughput dose response assay to identify compounds that are cytotoxic to Jurkat human T lymphocyte cells.; assay type: functional
# [6] = target: T1, Methionyl-tRNA synthetase, putative; assay type: functional, Trypanosoma brucei brucei strain 927/4 GUTat10.1; remark: listed apart in the source
# [7] = Shn3 3'UTR reporter inhibitors, dose response, cell-based, Clone20 osteoblasts, firefly luciferase, cherry-picked (AID 624132); assay type: functional;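 also: firefly luciferase luminescence from reporter carrying the Shn3 3'UTR in osteoblasts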
# [8] = HepG2 cell cytotoxicity, dose response, cytotoxicity control for Shn3 inhibitor project, CellTiter-Glo, cherry-picked (AID 624134); assay type: functional, cell-based
# [9] = control 3'UTR Renilla luciferase suppression, dose response, counter-screen for Shn3 inhibitor project, cell-based, Clone20-Shn3RL, cherry-picked (AID 624133); assay type: functional
# Caspase-6 = target: T2, Caspase-6 (Homo sapiens, UniProt P55212); assay: human caspase-6 inhibitors, dose response, biochemical, VEID-R110 fluorescence, cherry-pick (AID 720632)
# T2 sequence (P55212 whole entry): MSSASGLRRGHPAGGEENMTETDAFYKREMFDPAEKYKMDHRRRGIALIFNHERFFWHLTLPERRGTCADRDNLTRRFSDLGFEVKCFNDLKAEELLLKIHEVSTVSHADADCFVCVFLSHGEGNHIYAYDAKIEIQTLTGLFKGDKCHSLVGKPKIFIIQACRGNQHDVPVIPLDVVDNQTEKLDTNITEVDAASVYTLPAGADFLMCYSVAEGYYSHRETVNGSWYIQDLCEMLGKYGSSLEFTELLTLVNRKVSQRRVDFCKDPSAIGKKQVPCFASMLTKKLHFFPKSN
# [10] = ADAM10 inhibitors, peptide cleavage, dose response, biochemical, QFRET (AID 743254);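 also: ADAM10 enzyme with the DM2 quenched FRET peptide as substrate; EDANS fluorescence gain as the protease cuts the substrate; inhibitor potency against ADAM10 proteolytic activity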
# [11] = target: Disintegrin and metalloproteinase domain-containing protein 17 (Homo sapiens, UniProt P78536); assay: ADAM17 protease inhibitors, dose response, counter-screen for ADAM10 exosite inhibitor project, biochemical, quenched FRET substrate (AID 743253)
# Beta-lactamase [12] = target: Beta-lactamase (Salmonella choleraesuis (strain SC-B67), UniProt Q5J463); assay: Epi-absorbance-based counterscreen for selective VIM-2 inhibitors: dose response biochemical high throughput screening assay to identify inhibitors of TEM-1 serine-beta-lactamase.
# Beta-lactamase [13] = target: T3, Beta-lactamase (Pseudomonas aeruginosa, UniProt Q79MP6); assay: IMP-1 metallo-beta-lactamase inhibitors, dose response, selectivity assay for VIM-2 inhibitor project, biochemical, epi-absorbance (AID 1920)
# Beta-lactamase [14] = target: T3, Beta-lactamase; assay: […] counterscreen for selective VIM-2 inhibitors: dose response biochemical high throughput screening assay to identify inhibitors of IMP-1 metallo-beta-lactamase.
# [15] = target: Dual specificity tyrosine-phosphorylation-regulated kinase 1A (Rattus norvegicus, UniProt Q63470); assay type: biochemical, Homo sapiens
# [16] = target: T4, Sentrin-specific protease 1 (Homo sapiens, UniProt Q9P0U3); assay: potency of human SENP1 inhibitors, dose response, biochemical, kinetic FRET (AID 651697); assay type: functional; details: read-out: IC50_Mean
# T4 sequence (Q9P0U3 whole entry): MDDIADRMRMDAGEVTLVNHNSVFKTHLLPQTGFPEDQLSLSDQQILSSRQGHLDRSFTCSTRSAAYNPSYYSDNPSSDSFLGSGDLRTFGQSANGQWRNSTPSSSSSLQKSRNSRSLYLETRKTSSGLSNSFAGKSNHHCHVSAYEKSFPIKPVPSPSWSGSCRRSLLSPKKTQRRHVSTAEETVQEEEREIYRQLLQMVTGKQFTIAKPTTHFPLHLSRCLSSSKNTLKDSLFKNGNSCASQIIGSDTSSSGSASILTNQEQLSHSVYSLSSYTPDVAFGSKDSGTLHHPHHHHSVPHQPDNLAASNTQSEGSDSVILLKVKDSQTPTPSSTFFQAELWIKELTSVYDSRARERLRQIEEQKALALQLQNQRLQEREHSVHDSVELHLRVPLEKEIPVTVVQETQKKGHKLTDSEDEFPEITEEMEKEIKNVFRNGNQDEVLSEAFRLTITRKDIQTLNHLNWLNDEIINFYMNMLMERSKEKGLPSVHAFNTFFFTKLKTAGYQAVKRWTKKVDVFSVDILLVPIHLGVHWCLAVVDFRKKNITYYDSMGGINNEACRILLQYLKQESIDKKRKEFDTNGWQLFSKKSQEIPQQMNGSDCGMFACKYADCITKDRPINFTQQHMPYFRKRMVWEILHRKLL
# [17] = target: T4, Sentrin-specific protease 1; assay: Dose response confirmation of small molecule inhibitors of the catalytic domain of the SUMO protease, SENP1 in a FRET assay.; assay type: functional; details: read-out: IC50_Mean
# Albumin = Albumin (Bos taurus, UniProt P02769); assay: Counterscreen for inhibitors of T-cell receptor (TCR)-CD3 interaction: Fluorescence-based biochemical high throughput dose response assay to identify inhibitors of T-cell receptor (TCR)-CD3 interaction using a TAMRA-labeled BSA probe.; assay type: functional
# Paired box protein Pax-8 = Paired box protein Pax-8 (Homo sapiens, UniProt Q06710); assay: inhibitors of PAX8-driven TPO luciferase reporter, dose response, RMG-I cells, cherry-pick (AID 687027); assay type: functional, cell-based;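 also: luciferase reporter driven by Pax8 target thyroperoxidase promoter measured by SteadyGlo luminescence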
# [18] = NIH:OVCAR-3 ovarian cancer cell cytotoxicity, dose response, PAX8 inhibitor project, plate reader, dry powder samples (AID 743044); assay type: functional, cell-based
# [19] = cytotoxicity in OVCAR8 ovarian cancer cells, dose response, PAX8 project, cell-based, plate reader, dry powder samples (AID 743197); assay type: functional; details: OVCAR-8
# [20] = target: T5, Small ubiquitin-related modifier 1 (Homo sapiens, UniProt P63165); assay: inhibitors of SUMO1 peptide binding, dose response, biochemical, fluorescence polarization, uHTS hits (AID 624382); assay type: functional; details: read-out: IC50_Mean
# [21] = target: T5, Small ubiquitin-related modifier 1; assay: inhibitors of SUMO1 partner interactions, dose response, biochemical, FRET (AID 624383); assay type: functional; details: read-out: IC50_Mean
# [22] = target: T6, COUP transcription factor 2 (Homo sapiens, UniProt P24468); assay: Luminescence-based cell-based high throughput dose response assay to identify inhibitors of COUP-TFII (NR2F2).; assay type: functional;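 also: HEK293 cells transiently cotransfected with COUP-TFII expression vector and reporter; luciferase reporter luminescence driven by COUP-TFII from the pX2-168 reporter plasmid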
# T6 sequence (P24468 whole entry): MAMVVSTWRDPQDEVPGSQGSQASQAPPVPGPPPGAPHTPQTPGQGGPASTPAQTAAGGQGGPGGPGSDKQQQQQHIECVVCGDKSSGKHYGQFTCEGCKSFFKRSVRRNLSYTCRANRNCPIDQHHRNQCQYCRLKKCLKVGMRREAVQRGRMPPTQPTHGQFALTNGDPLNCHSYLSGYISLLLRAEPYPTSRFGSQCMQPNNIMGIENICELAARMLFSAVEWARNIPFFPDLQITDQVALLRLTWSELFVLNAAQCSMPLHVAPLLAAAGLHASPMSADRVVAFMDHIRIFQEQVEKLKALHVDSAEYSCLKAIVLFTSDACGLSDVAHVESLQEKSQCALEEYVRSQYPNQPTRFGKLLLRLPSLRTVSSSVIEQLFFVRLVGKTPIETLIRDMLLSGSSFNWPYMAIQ
# [23] = target: NAD-dependent protein deacylase sirtuin-5, mitochondrial (Homo sapiens, UniProt Q9NXA8); assay: SIRT5 desuccinylase inhibitors, dose response, biochemical, fluorescence imaging, cherry-pick, set 5 (AID 720591);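 also: desuccinylation of succinyl peptide AMC substrate read as fluorescence after trypsin release; potency of inhibitors that lower fluorescence and may act on trypsin instead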
# Sequence of NAD-dependent protein deacylase sirtuin-5, mitochondrial (Q9NXA8 whole entry): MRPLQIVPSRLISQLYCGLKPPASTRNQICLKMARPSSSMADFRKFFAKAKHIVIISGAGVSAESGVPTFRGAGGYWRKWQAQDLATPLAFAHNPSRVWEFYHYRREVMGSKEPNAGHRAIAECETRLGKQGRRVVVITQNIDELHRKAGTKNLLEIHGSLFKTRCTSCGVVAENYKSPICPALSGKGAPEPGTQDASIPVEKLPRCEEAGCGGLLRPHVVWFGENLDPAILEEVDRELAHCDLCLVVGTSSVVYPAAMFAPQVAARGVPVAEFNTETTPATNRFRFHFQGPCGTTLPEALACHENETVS
# T3 sequence (Q79MP6 whole entry): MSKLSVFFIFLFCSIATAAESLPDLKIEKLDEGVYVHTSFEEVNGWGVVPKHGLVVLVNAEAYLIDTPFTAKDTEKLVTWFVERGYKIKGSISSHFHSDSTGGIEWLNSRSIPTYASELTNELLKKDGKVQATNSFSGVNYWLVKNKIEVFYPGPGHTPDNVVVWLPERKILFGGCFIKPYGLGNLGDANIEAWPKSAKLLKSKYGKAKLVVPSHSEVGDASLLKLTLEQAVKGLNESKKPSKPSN
# Sequence of Beta-lactamase (Salmonella choleraesuis (strain SC-B67), UniProt Q5J463) (Q5J463 whole entry): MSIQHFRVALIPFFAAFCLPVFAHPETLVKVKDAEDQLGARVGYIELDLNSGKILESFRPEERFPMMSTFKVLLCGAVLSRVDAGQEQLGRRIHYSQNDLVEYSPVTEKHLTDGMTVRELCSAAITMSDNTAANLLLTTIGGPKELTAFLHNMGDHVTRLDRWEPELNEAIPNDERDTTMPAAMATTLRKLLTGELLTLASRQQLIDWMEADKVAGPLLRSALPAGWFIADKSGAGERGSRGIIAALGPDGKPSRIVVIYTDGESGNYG
# Sequence of Disintegrin and metalloproteinase domain-containing protein 17 (P78536 whole entry, the tested form may be a part): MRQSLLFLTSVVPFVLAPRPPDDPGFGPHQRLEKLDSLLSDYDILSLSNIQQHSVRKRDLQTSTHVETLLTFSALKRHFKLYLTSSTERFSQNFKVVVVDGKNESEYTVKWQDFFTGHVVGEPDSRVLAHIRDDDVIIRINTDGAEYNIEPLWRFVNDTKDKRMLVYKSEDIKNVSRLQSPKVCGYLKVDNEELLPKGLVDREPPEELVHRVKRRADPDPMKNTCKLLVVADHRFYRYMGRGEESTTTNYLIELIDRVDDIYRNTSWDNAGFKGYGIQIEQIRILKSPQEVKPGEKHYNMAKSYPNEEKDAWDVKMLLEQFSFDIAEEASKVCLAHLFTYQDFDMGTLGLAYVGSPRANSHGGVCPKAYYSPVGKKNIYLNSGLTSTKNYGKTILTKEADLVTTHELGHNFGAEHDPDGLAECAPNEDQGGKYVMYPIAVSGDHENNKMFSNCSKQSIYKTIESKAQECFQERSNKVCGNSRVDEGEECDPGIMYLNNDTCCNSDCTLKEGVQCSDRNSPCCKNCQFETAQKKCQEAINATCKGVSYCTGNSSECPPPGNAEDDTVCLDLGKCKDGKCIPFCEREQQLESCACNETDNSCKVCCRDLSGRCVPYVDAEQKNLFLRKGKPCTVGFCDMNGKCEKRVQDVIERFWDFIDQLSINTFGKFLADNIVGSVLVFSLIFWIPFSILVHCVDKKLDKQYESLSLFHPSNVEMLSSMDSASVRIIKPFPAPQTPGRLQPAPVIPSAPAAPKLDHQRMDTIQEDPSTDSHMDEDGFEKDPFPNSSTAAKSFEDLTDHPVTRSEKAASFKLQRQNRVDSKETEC
# T5 sequence (P63165 whole entry): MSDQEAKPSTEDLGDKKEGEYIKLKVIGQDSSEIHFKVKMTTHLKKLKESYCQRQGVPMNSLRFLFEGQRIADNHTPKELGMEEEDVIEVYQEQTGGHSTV
# Sequence of Albumin (P02769 whole entry): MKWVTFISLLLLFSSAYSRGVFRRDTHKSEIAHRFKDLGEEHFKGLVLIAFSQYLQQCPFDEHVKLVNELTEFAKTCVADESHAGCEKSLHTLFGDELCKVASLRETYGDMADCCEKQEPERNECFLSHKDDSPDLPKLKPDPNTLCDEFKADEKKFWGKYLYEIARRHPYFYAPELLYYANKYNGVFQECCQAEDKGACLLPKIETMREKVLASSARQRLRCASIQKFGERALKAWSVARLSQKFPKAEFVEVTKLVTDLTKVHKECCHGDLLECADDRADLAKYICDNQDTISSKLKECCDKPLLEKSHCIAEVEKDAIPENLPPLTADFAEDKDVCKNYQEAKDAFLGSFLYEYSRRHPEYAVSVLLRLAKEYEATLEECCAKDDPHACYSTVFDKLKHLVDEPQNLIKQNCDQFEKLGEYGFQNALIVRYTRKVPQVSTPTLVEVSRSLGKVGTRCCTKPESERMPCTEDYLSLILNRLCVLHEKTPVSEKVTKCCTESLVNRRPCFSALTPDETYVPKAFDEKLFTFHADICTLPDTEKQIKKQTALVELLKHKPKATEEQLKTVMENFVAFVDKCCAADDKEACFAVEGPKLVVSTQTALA
# Sequence of Paired box protein Pax-8 (Q06710 whole entry): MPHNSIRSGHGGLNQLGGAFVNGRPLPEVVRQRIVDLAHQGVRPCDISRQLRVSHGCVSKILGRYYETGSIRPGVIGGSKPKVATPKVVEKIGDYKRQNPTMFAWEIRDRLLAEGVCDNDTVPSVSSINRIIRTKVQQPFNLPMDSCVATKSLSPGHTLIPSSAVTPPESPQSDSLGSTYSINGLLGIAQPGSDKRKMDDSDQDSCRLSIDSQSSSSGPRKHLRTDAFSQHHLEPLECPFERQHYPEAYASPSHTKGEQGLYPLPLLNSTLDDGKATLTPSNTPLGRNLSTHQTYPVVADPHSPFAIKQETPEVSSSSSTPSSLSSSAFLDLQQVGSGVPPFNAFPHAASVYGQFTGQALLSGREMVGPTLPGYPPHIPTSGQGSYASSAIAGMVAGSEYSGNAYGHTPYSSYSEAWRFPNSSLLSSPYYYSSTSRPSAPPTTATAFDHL
smiles,measurement,setting,value
C[C@@H]1CN([C@@H](C)CO)C(=O)c2cc(NC(=O)Nc3ccccc3)ccc2O[C@@H](C)CCCCO[C@H]1CN(C)Cc1ccc(Cl)c(Cl)c1,AC50,[1],3.59 µM (active)
Clc1cccc(CNc2nc(-c3cccnc3)nc3ccccc23)c1,EC50,[2],0.952 µM (active)
same,EC50,[3],> 60 µM (not active)
same,IC50,[4],32 µM (inactive)
same,IC50,[5],41.9 µM (inactive)
same,IC50,[6],16.4 µM (inactive)
Cc1cc(C(=O)NNS(=O)(=O)c2cc(C(=O)O)ccc2Cl)c(C)n1-c1ccccc1,AC50,[7],25.7 µM (active)
same,AC50,[8],> 70 µM (inactive)
same,AC50,[9],16.9 µM (active)
same,AC50,Caspase-6,23.2 µM (active)
COC(=O)c1ccc(-c2cc3onc(-c4ccccc4)c3c(=O)n2C)cc1,IC50,[10],> 69.5 µM (inactive)
same,IC50,[11],> 69.5 µM (inactive)
O=C(O)c1[nH]c2ccc(Cl)cc2c1CCN1C(=O)c2ccccc2C1=O,IC50,Beta-lactamase [12],> 59.6 µM (inactive)
same,IC50,Beta-lactamase [13],> 59.6 µM (inactive)
same,IC50,Beta-lactamase [14],> 59.6 µM (inactive)
same,AC50,[15],13.6 µM (active)
O=C(c1ccncc1)N1CCCCN2[C@H](C1)[C@H](c1ccc(C#Cc3ccccn3)cc1)[C@@H]2CO,AC50,Caspase-6,50.4 µM (active)
C[C@@H]1CCCCO[C@@H](CN(C)C(=O)Nc2ccc3c(c2)OCO3)[C@@H](C)CN([C@H](C)CO)C(=O)c2cc(NC(=O)Nc3ccc(C(F)(F)F)cc3)ccc2O1,IC50,[10],> 69.5 µM (inactive)
same,IC50,[11],> 69.5 µM (inactive)
Cc1cccc(C)c1-n1nnnc1-c1nc2cc3ccccc3cc2nc1O,IC50,[16],7.1 µM (active)
same,IC50,[17],1.93 µM (active)
CC1CCCC(C)N1C(=O)CSc1nnc(NC(=O)c2cccs2)s1 (stereo not drawn),IC50,Beta-lactamase [12],> 59.6 µM (inactive)
same,IC50,Beta-lactamase [13],> 59.6 µM (inactive)
same,IC50,Beta-lactamase [14],> 59.6 µM (inactive)
O=C(CSc1nc2ccccc2s1)N/N=C/c1cc([N+](=O)[O-])ccc1O,IC50,Albumin,> 94.1 µM (inactive)
C[C@H](CO)N1C[C@H](C)[C@@H](CN(C)Cc2ccc(C(F)(F)F)cc2)OCCCC[C@H](C)Oc2ccc(NC(=O)Nc3ccc(F)cc3)cc2C1=O,AC50,Paired box protein Pax-8,9.37 µM (active)
same,AC50,[1],46.6 µM (active)
same,AC50,[18],45.4 µM (active)
same,AC50,[19],39.2 µM (active)
COc1ccc(C(=O)NNC(=S)NC(=O)c2cccnc2)cc1,IC50,Albumin,> 94.1 µM (inactive)
COc1ccc(Cl)cc1Nc1nc(-c2sc(NC(=O)C(C)(C)C)nc2C)cs1,IC50,[20],> 66.6 µM (inactive)
same,IC50,[21],7.99 µM (active)
same,IC50,[22],11.2 µM (inactive)
Cc1cc(/C=C2/SC(=S)N(c3cccc(Cl)c3)C2=O)c(C)n1-c1cccnc1,AC50,[7],0.979 µM (active)
same,AC50,[8],47.8 µM (active)
same,AC50,[9],3.55 µM (active)
same,IC50,[22],5.65 µM (active)
O=C(CN1CCS/C1=N/Cc1ccccc1)c1ccc(Cl)c(Cl)c1,IC50,[4],3.92 µM (active)
same,IC50,[5],48.2 µM (inactive)
same,IC50,[6],2.67 µM (active)
COC(=O)c1ccc(-c2nc(O)c(C)s2)cc1,IC50,[16],7.31 µM (active)
same,IC50,[17],8.08 µM (active)
COc1ccc(CC(=O)NC(C)c2nnc(SCCOc3ccc(OC)cc3)n2C)cc1 (stereo not drawn),AC50,[23],24.2 µM (active)
Cc1cc(NC(=O)CSc2nc3ccccc3cc2C#N)no1,IC50,[16],19.3 µM (active)
same,IC50,[17],11 µM (active)
COc1ccc(-c2cc(C(F)(F)F)nc(N3CCN(C)CC3)n2)cc1,IC50,Beta-lactamase [12],> 59.6 µM (inactive)
same,IC50,Beta-lactamase [13],> 59.6 µM (inactive)
same,IC50,Beta-lactamase [14],> 59.6 µM (inactive)
